Results reported in ChEMBL document CHEMBL1201862, “PubChem BioAssay data set” (2004).
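Assay format: 96-well plates, 48-hour exposure. At the GI50, growth is halved.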 The source made the active and inactive calls. Cut-off read from the data, not from the text of the source: active = GI50 up to about 1.1 µM and inactive = higher.

What was measured:
Assay in all cases: NCI tumour cell line growth inhibition, 48 h
[1] = test system: 786-0
[2] = test system: CCRF-CEM
[3] = test system: COLO 205
[4] = test system: DU-145
[5] = test system: IGROV-1
[6] = test system: K562
[7] = test system: M14
[8] = test system: MDA-MB-435
[9] = test system: NCI-H522
[10] = test system: NCI/ADR-RES
[11] = test system: OVCAR-4
[12] = test system: OVCAR-5
[13] = test system: OVCAR-8
[14] = test system: PC-3
[15] = test system: RPMI-8226
[16] = test system: SF-268
[17] = test system: SK-MEL-28
[18] = test system: SK-MEL-2
[19] = test system: SNB-19
[20] = test system: SW-620

Compound	GI50 [1]	GI50 [2]	GI50 [3]	GI50 [4]	GI50 [5]	GI50 [6]	GI50 [7]	GI50 [8]	GI50 [9]	GI50 [10]	GI50 [11]	GI50 [12]	GI50 [13]	GI50 [14]	GI50 [15]	GI50 [16]	GI50 [17]	GI50 [18]	GI50 [19]	GI50 [20]
Fc1cc(-c2cc(-c3ccccc3)n[nH]2)c(Cl)cc1Cl	> 100 µM (inactive)	82.2 µM (inactive)	> 100 µM (inactive)	> 100 µM (inactive)	1.77 µM (inactive)	0.492 µM (active)	> 100 µM (inactive)	> 100 µM (inactive)	> 100 µM (inactive)	> 100 µM (inactive)	> 100 µM (inactive)	> 100 µM (inactive)	> 100 µM (inactive)	> 100 µM (inactive)	30.9 µM (inactive)	> 100 µM (inactive)	> 100 µM (inactive)	> 100 µM (inactive)	> 100 µM (inactive)	> 100 µM (inactive)
CCOc1ccc(NC(=O)C(=O)C(/C(=N/N)C(=O)OC)c2nc3ccc([N+](=O)[O-])cc3nc2O)cc1 (stereo not given)	> 100 µM (inactive)	> 100 µM (inactive)	> 100 µM (inactive)	> 100 µM (inactive)	> 100 µM (inactive)	> 100 µM (inactive)	> 100 µM (inactive)	> 100 µM (inactive)	> 100 µM (inactive)	> 100 µM (inactive)	> 100 µM (inactive)	> 100 µM (inactive)	> 100 µM (inactive)	> 100 µM (inactive)	24.2 µM (inactive)	> 100 µM (inactive)	> 100 µM (inactive)	> 100 µM (inactive)	> 100 µM (inactive)	> 100 µM (inactive)
CC1=NN=C(N)N/C1=C\C(Sc1ccc(Cl)cc1)c1ccc([N+](=O)[O-])cc1 (stereo not given)	38.1 µM (inactive)	27.5 µM (inactive)	> 100 µM (inactive)	> 100 µM (inactive)	39.1 µM (inactive)	62.4 µM (inactive)	62.1 µM (inactive)	83.9 µM (inactive)	26.9 µM (inactive)	> 100 µM (inactive)	> 100 µM (inactive)	> 100 µM (inactive)	> 100 µM (inactive)	66.7 µM (inactive)	35.6 µM (inactive)	47.4 µM (inactive)	> 100 µM (inactive)	> 100 µM (inactive)	> 100 µM (inactive)	85.3 µM (inactive)
